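Interpolation was linear, between the two tested concentrations surrounding the appropriate level; five concentrations were tested over 48 hours in 96-well plates. Here, GI50 denotes the concentration required for 50% inhibition of growth. TGI: concentration producing complete growth inhibition.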
Tests used:
Experiment in all cases: growth of human tumour cells (NCI), 48 h
[1] = system: 786-0 renal
[2] = system: A498 renal
[3] = system: A549 NSCLC
[4] = system: ACHN renal
[5] = system: BT-549 breast
[6] = system: CAKI-1 renal
[7] = system: CCRF-CEM leukemia
[8] = system: COLO 205 colon
[9] = system: DU-145 prostate
[10] = system: HCT-116 colon
[11] = system: HCT-15 colon
[12] = system: HL-60(TB) leukemia
[13] = system: HOP-62 NSCLC
[14] = system: HS 578T breast
[15] = system: HT29 colon
[16] = system: IGROV1 ovarian
[17] = system: K-562 leukemia
[18] = system: KM12 colon
[19] = system: LOX IMVI melanoma
[20] = system: M14 melanoma
[21] = system: MALME-3M melanoma
[22] = system: MCF7 breast
[23] = system: MDA-MB-231 breast
[24] = system: MDA-MB-435
[25] = system: MOLT-4 leukemia
[26] = system: NCI-H226 lung
[27] = system: NCI-H23 lung
[28] = system: NCI-H460 lung
[29] = system: NCI-H522 lung
[30] = system: NCI/ADR-RES ovarian
[31] = system: OVCAR-3 ovarian
[32] = system: OVCAR-4 ovarian
[33] = system: OVCAR-5 ovarian
[34] = system: OVCAR-8 ovarian
[35] = system: PC-3 prostate
[36] = system: RPMI-8226 leukemia
[37] = system: SF-268 CNS
[38] = system: SF-295 CNS
[39] = system: SF-539 CNS
[40] = system: SK-MEL-2 melanoma
[41] = system: SK-MEL-28 melanoma
[42] = system: SK-MEL-5 melanoma
[43] = system: SK-OV-3 ovarian
[44] = system: SN12C renal
[45] = system: SNB-19 CNS
[46] = system: SNB-75 CNS
[47] = system: SR leukemia
[48] = system: SW-620 colon
[49] = system: T-47D breast
[50] = system: U251 CNS
[51] = system: UACC-257 melanoma
[52] = system: UO-31 renal

For `ClCCN(CCCl)c1ccc(OCc2ccccc2)cc1`, the GI50 [1] was 2.97 µM, the TGI [1] was 22.1 µM and the GI50 [2] was 3.54 µM. It also gave a TGI [2] of 19.5 µM, a GI50 [3] of 2.53 µM and a TGI [3] of 29.8 µM. It also gave a GI50 [4] of 2.1 µM, a TGI [4] greater than 100 µM and a GI50 [5] of 2.5 µM. It also gave a TGI [5] of 22.6 µM, a GI50 [6] of 0.709 µM and a TGI [6] of 66.5 µM. It also gave a GI50 [7] of 2.36 µM, a TGI [7] of 27.6 µM and a GI50 [8] of 12.1 µM. The TGI [8] was 32.4 µM, the GI50 [9] was 3.16 µM and the TGI [9] was 27.6 µM. For the same compound, the GI50 [10] was 6.81 µM, the TGI [10] was 26.9 µM and the GI50 [11] was 5.11 µM. It also gave a TGI [11] of 84.1 µM, a GI50 [12] of 1.84 µM and a TGI [12] of 23.7 µM. For the same compound, the GI50 [13] was 4.05 µM, the TGI [13] was 30.4 µM and the GI50 [14] was 15.7 µM. It also gave a TGI [14] of 69.4 µM, a GI50 [15] of 13.4 µM and a TGI [15] of 49.8 µM. The GI50 [16] was 7.03 µM, the TGI [16] was 64 µM and the GI50 [17] was 7.02 µM. It also gave a TGI [17] greater than 100 µM, a GI50 [18] of 14.2 µM and a TGI [18] of 36.7 µM. For the same compound, the GI50 [19] was 3.13 µM, the TGI [19] was 17.4 µM and the GI50 [20] was 4.16 µM. For the same compound, the TGI [20] was 42.2 µM, the GI50 [21] was 10.2 µM and the TGI [21] was 34.4 µM. The GI50 [22] was 3.6 µM, the TGI [22] was 35.5 µM and the GI50 [23] was 16.6 µM. It also gave a TGI [23] of 48.6 µM, a GI50 [24] of 8.16 µM and a TGI [24] of 32.6 µM. The GI50 [25] was 1.74 µM, the TGI [25] was 40 µM and the GI50 [26] was 10.3 µM. For the same compound, the TGI [26] was 28 µM, the GI50 [27] was 4.88 µM and the TGI [27] was 36.6 µM. The GI50 [28] was 0.603 µM, the TGI [28] was 19.8 µM and the GI50 [29] was 4.64 µM. The TGI [29] was 21.9 µM, the GI50 [30] was 5.44 µM and the TGI [30] was greater than 100 µM. The GI50 [31] was 8.54 µM, the TGI [31] was 34.8 µM and the GI50 [32] was 12 µM. It also gave a TGI [32] of 55.4 µM, a GI50 [33] of 29 µM and a TGI [33] greater than 100 µM. The GI50 [34] was 3.3 µM, the TGI [34] was 75.7 µM and the GI50 [35] was 5.28 µM. For the same compound, the TGI [35] was greater than 100 µM, the GI50 [36] was 3.79 µM and the TGI [36] was 36.5 µM. The GI50 [37] was 2.07 µM, the TGI [37] was 22.5 µM and the GI50 [38] was 1.79 µM. For the same compound, the TGI [38] was greater than 100 µM, the GI50 [39] was 2.03 µM and the TGI [39] was 7.44 µM. For the same compound, the GI50 [40] was 13.3 µM, the TGI [40] was 35.4 µM and the GI50 [41] was 13.8 µM. The TGI [41] was 40.9 µM, the GI50 [42] was 6.62 µM and the TGI [42] was 20.6 µM. The GI50 [43] was 7.85 µM, the TGI [43] was 61.4 µM and the GI50 [44] was 2.76 µM. It also gave a TGI [44] of 58.6 µM, a GI50 [45] of 6.15 µM and a TGI [45] greater than 100 µM. It also gave a GI50 [46] of 1.81 µM, a TGI [46] of 12 µM and a GI50 [47] of 0.395 µM. The TGI [47] was 15.5 µM, the GI50 [48] was 6.46 µM and the TGI [48] was 65.8 µM. The GI50 [49] was 4.4 µM, the TGI [49] was 28.7 µM and the GI50 [50] was 2.1 µM. For the same compound, the TGI [50] was 18.2 µM, the GI50 [51] was 6.3 µM and the TGI [51] was 39.6 µM. The GI50 [52] was 3.99 µM and the TGI [52] was 41.4 µM.
